System: transplanted tumor of human esophageal cancer cell TE-1
Assay: TE-1 transplanted tumor in nude mice
Details: for tumor volume and relative tumor volume compared with the model group: low, medium and high doses, P<0.05; for mouse weight compared with the model group: in vivo
Protocol: Then cell concentration was adjusted to 1×10^7/ml with matrigel, then each nude mouse was inoculated subcutaneously with 0.2 ml of cells at its right armpit and recorded as the first day of inoculation. When the tumor grows to be greater than or equal to 100 mm^3, the mice were randomly divided into 11 groups with 6 mice in each group: a model group, a cyclophosphamide group, isovaleryl spiramycin I groups with doses of 25, 50 and 100 mg/kg, isovaleryl spiramycin II groups with doses of 25, 50 and 100 mg/kg, and isovaleryl spiramycin III groups with doses of 25, 50 and 100 mg/kg. Each group was continuously administered intragastrically for 30 days with a dose of 20 ml/kg. The mice were sacrificed the next day after drug withdrawal and the indicators were tested. The long diameter and short diameter of the tumor, and the body weight of each mouse were recorded every 3 days from drug administration to nude mouse sacrifice.
The body weight of the nude mice and the long diameter (a) and short diameter (b) of the transplanted tumor were measured every 3 days, and the tumor volume (v), relative tumor volume (RTV) and relative tumor proliferation rate (T/C) are calculated respectively according to the following formulas, wherein V=a×b^2/2; RTV=V/V0 (V0 is the tumor volume before administration, V is the tumor volume before sacrifice), and T/C (%)=treatment group RTV/model control group RTV×100%.
Each mouse was weighed and sacrificed. After the tumor was completely stripped off from the body of the mouse, the non-tumor tissues such as blood stains and fat were removed to weigh the tumor and calculate the tumor growth inhibition rate. The average tumor weight of each group of mice is used as an indicator of efficacy. Tumor growth inhibition rate (%)=(1−the average tumor weight of the treatment group/the average tumor weight of the model group)×100%.

[1] = TE-1, 12.5 mg/kg (low dose) i.g. 30 days
[2] = TE-1, 25 mg/kg (medium dose) i.g. 30 days
[3] = TE-1, 50 mg/kg (high dose) i.g. 30 days

Row | SMILES | Inhibition Rate (tumor growth inhibition rate) [1] [%] | Relative Tumor Proliferation Rate (T/C) [1] [%] | Relative Tumor Volume (RTV) [1] | Tumor Volume (d 1) [1] [mm3] | Tumor Volume (d 30) [1] [mm3] | Tumor Weight [1] [g] | Inhibition Rate (tumor growth inhibition rate) [2] [%] | Relative Tumor Proliferation Rate (T/C) [2] [%] | Relative Tumor Volume (RTV) [2] | Tumor Volume (d 1) [2] [mm3] | Tumor Volume (d 30) [2] [mm3] | Tumor Weight [2] [g] | Inhibition Rate (tumor growth inhibition rate) [3] [%] | Relative Tumor Proliferation Rate (T/C) [3] [%] | Relative Tumor Volume (RTV) [3] | Tumor Volume (d 1) [3] [mm3] | Tumor Volume (d 30) [3] [mm3] | Tumor Weight [3] [g] | tumor volume and relative tumor volume compared with the model group (TE-1) | mouse weight compared with the model group | further results
1 | CCC(=O)O[C@@H]1CC(=O)O[C@H](C)C/C=C/C=C/[C@H](O[C@H]2CC[C@H](N(C)C)[C@@H](C)O2)[C@H](C)C[C@H](CC=O)[C@H](O[C@@H]2O[C@H](C)[C@@H](O[C@H]3C[C@@](C)(O)[C@@H](OC(=O)CC(C)C)[C@H](C)O3)[C@H](N(C)C)[C@H]2O)[C@H]1OC [Isovaleryl spiramycin III, isovaleryl spiramycin III] | 22.64 | 66.52 | 6.03 ± 5.27 | 173.45 ± 63.55 | 1254.78 ± 637.73 | 1.21 ± 0.53 | 40.17 | 50.71 | 5.02 ± 6.81 | 206.72 ± 79.72 | 1140.10 ± 819.08 | 0.94 ± 0.39 | 65.46 | 30.72 | 3.60 ± 1.29 | 331.09 ± 208.02 | 1106.23 ± 865.11 | 0.54 ± 0.22 | significantly lower | no significant changes | 
2 | COC1C(OC(C)=O)CC(=O)OC(C)CC=CC=CC(OC2CCC(N(C)C)C(C)O2)C(C)CC(CC=O)C1OC1OC(C)C(OC2CC(C)(O)C(OC(=O)CC(C)C)C(C)O2)C(N(C)C)C1O (centres unmarked) [Isovaleryl spiramycin II, isovaleryl spiramycin II] | 24.87 | 70.32 | 7.92 ± 6.86 | 134.33 ± 57.77 | 1027.37 ± 363.55 | 1.18 ± 0.60 | 43.78 | 50.51 | 6.99 ± 5.39 | 195.76 ± 76.95 | 1075.36 ± 720.20 | 0.88 ± 0.46 | 72.48 | 36.49 | 6.97 ± 7.85 | 143.85 ± 16.25 | 570.92 ± 293.97 | 0.43 ± 0.26 | significantly lower | no significant changes | 
3 | O=P1(N(CCCl)CCCl)NCCCO1 (centres unmarked) [Cyclophosphamide, cyclophosphamide, reference compound] |  |  |  |  |  |  |  |  |  |  |  |  |  |  |  |  |  |  |  |  | Body Weight (d 1) (TE-1, 30 mg/kg i.g. 30 days): 23.18 ± 1.22 g; Body Weight (d 30) (TE-1, 30 mg/kg i.g. 30 days): 20.57 ± 1.14 g; Inhibition Rate (tumor growth inhibition rate) (TE-1, 30 mg/kg i.g. 30 days): 71.87%; Relative Tumor Proliferation Rate (T/C) (TE-1, 30 mg/kg i.g. 30 days): 30.18%; Relative Tumor Volume (RTV) (TE-1, 30 mg/kg i.g. 30 days): 4.00 ± 1.91; Tumor Volume (d 1) (TE-1, 30 mg/kg i.g. 30 days): 269.96 ± 92.18 mm3; Tumor Volume (d 30) (TE-1, 30 mg/kg i.g. 30 days): 886.22 ± 271.22 mm3; Tumor Weight (TE-1, 30 mg/kg i.g. 30 days): 0.44 ± 0.18 g
4 | CO[C@@H]1[C@@H](O[C@@H]2O[C@H](C)[C@@H](O[C@H]3C[C@@](C)(O)[C@@H](OC(=O)CC(C)C)[C@H](C)O3)[C@H](N(C)C)[C@H]2O)[C@@H](CC=O)C[C@@H](C)[C@@H](O[C@H]2CC[C@H](N(C)C)[C@@H](C)O2)/C=C/C=C/C[C@@H](C)OC(=O)C[C@H]1O [Isovaleryl spiramycin I, isovaleryl spiramycin I] | 30.92 | 60.55 | 5.48 ± 3.80 | 408.51 ± 150.80 | 2690.27 ± 374.79 | 1.08 ± 0.24 | 51.01 | 40.70 | 3.94 ± 2.71 | 258.44 ± 104.69 | 1143.85 ± 402.36 | 0.77 ± 0.43 | 69.71 | 20.61 | 3.65 ± 1.71 | 279.56 ± 156.70 | 626.64 ± 431.35 | 0.48 ± 0.36 | significantly lower | no significant changes | 

Reference: patent US20200163984A1, “USE OF ISOVALERYL SPIRAMYCIN I, II AND/OR III IN MANUFACTURING MEDICAMENT FOR TREATING AND/OR PREVENTING TUMOR, AND MEDICAMENT” (SHENYANG FUYANG PHARMACEUTICAL TECHNOLOGY CO., LTD., priority 2017, published 2020)
